Here are results for seven compounds from patent publication EP4722207A1, “OXOISOINDOLINYL-SUBSTITUTED TETRAHYDROPYRIMIDINEDIONE DERIVATIVE AND USE THEREOF” (Gluetacs Therapeutics (Shanghai) Co., Ltd., priority 2023, dated 2024).

The target of experiment [1] is T1, WEE1 (Homo sapiens, UniProt P30291+Q96SW2).
T1 construct: effects of the compounds of the present disclosure on the expression of target proteins in cells; endogenous in cells; host or cells: human PBMCs (hPBMCs)
Put plainly: Western-blot assay, substrate protein degradation in hPBMCs: WEE1. The class given is cell-based. To be noted: 24 hours of compound treatment, 50 nM and 500 nM.

For experiment [2], the target named is T2, IKZF1 (Homo sapiens, UniProt Q13422+Q96SW2).
T2 construct: effects of the compounds of the present disclosure on the expression of target proteins in cells; endogenous in cells; host or cells: human PBMCs (hPBMCs)
Put plainly: Western-blot assay, substrate protein degradation in hPBMCs: IKZF1. In kind it is cell-based. To be noted: 24 hours of compound treatment, 50 nM and 500 nM.

For experiment [3], the target named is T3, IKZF2 (Homo sapiens, UniProt Q96SW2+Q9UKS7).
T3 construct: effects of the compounds of the present disclosure on the expression of target proteins in cells; endogenous in cells; host or cells: human PBMCs (hPBMCs)
Put plainly: Western-blot assay, substrate protein degradation in hPBMCs: IKZF2. The class given is cell-based. The following applies: 24 hours of compound treatment, 50 nM and 500 nM.

Experiment [4] deals with T4, IKZF3 (Homo sapiens, UniProt Q96SW2+Q9UKT9).
T4 construct: effects of the compounds of the present disclosure on the expression of target proteins in cells; endogenous in cells; host or cells: human PBMCs (hPBMCs)
The experiment in a line: Western-blot assay, substrate protein degradation in hPBMCs: IKZF3. To be noted: 24 hours of compound treatment, 50 nM and 500 nM. The class given is cell-based.

In experiment [5] the target is T5, CK1α (Homo sapiens, UniProt P48729+Q96SW2).
T5 construct: effects of the compounds of the present disclosure on the expression of target proteins in cells; endogenous in cells; host or cells: human PBMCs (hPBMCs)
Put plainly: Western-blot assay, substrate protein degradation in hPBMCs: CK1α. The class given is cell-based. The following applies: 24 hours of compound treatment, 50 nM and 500 nM.

For experiment [6], the target named is T6, GSPT1 (Homo sapiens, UniProt P15170+Q96SW2).
T6 construct: effects of the compounds of the present disclosure on the expression of target proteins in cells; endogenous in cells; host or cells: human PBMCs (hPBMCs)
Put plainly: Western-blot assay, substrate protein degradation in hPBMCs: GSPT1. In kind it is cell-based. To be noted: 24 hours of compound treatment, 50 nM and 500 nM.

The test system of experiment [7] is H292. Put plainly: Cell viability assay (CellTiter-Meiluncell Luminescent), tumor cell proliferation, H292. To be noted: Homo sapiens, NCI-H292, 96 h; for inhibition at 0.01 µM: read-out: Inhibition Rate at 10 nM (%); for inhibition at 0.5 µM: read-out: Inhibition Rate at 500 nM (%).
The subject of experiment [8] is H2228. The experiment in a line: Cell viability assay (CellTiter-Meiluncell Luminescent), tumor cell proliferation, H2228. The following applies: Homo sapiens, NCI-H2228, 96 h; for inhibition at 0.01 µM: read-out: Inhibition Rate at 10 nM (%); for inhibition at 0.5 µM: read-out: Inhibition Rate at 500 nM (%).
The subject of experiment [9] is MV-4-11. Put plainly: Cell viability assay (CellTiter-Meiluncell Luminescent), tumor cell proliferation, MV-4-11. To be noted: Homo sapiens, MV4-11, 96 h; for inhibition at 0.01 µM: read-out: Inhibition Rate at 10 nM (%); for inhibition at 0.5 µM: read-out: Inhibition Rate at 500 nM (%).
Experiment [10] has as its system MDA-MB-231. The experiment in a line: Cell viability assay (CellTiter-Meiluncell Luminescent), tumor cell proliferation, MDA-MB-231. To be noted: Homo sapiens, MDA-MB-231, 96 h; for inhibition at 0.01 µM: read-out: Inhibition Rate at 10 nM (%); for inhibition at 0.5 µM: read-out: Inhibition Rate at 500 nM (%).

As usually defined, the inhibition is the percentage by which the read-out fell short of the control.

Structures are written as SMILES.

T4 sequence (Q9UKT9 whole entry): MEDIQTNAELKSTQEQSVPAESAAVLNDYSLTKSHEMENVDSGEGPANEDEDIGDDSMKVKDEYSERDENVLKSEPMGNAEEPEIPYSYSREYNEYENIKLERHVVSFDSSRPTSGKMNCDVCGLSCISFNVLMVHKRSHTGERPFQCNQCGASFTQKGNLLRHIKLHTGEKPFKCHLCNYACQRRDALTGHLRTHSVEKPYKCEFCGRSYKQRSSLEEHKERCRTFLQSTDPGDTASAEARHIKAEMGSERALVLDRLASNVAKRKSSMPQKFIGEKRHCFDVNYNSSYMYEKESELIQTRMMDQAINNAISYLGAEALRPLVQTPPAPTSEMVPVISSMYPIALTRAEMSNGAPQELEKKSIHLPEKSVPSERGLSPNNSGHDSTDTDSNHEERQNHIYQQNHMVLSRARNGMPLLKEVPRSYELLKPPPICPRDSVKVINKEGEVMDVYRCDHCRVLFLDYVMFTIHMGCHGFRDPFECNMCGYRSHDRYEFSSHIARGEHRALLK
T4 sequence (Q96SW2 whole entry): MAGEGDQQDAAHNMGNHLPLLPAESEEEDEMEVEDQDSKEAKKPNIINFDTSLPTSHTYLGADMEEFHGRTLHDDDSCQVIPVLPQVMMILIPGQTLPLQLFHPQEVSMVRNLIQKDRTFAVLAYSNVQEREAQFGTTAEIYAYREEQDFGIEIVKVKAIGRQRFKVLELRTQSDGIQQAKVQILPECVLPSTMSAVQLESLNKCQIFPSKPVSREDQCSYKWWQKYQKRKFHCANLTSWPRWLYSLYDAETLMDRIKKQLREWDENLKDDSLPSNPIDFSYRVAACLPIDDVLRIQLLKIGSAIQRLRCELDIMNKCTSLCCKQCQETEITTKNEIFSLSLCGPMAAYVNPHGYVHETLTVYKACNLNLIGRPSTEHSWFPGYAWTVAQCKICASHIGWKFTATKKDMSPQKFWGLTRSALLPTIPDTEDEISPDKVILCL
T4 sequence (Q16531 whole entry partner): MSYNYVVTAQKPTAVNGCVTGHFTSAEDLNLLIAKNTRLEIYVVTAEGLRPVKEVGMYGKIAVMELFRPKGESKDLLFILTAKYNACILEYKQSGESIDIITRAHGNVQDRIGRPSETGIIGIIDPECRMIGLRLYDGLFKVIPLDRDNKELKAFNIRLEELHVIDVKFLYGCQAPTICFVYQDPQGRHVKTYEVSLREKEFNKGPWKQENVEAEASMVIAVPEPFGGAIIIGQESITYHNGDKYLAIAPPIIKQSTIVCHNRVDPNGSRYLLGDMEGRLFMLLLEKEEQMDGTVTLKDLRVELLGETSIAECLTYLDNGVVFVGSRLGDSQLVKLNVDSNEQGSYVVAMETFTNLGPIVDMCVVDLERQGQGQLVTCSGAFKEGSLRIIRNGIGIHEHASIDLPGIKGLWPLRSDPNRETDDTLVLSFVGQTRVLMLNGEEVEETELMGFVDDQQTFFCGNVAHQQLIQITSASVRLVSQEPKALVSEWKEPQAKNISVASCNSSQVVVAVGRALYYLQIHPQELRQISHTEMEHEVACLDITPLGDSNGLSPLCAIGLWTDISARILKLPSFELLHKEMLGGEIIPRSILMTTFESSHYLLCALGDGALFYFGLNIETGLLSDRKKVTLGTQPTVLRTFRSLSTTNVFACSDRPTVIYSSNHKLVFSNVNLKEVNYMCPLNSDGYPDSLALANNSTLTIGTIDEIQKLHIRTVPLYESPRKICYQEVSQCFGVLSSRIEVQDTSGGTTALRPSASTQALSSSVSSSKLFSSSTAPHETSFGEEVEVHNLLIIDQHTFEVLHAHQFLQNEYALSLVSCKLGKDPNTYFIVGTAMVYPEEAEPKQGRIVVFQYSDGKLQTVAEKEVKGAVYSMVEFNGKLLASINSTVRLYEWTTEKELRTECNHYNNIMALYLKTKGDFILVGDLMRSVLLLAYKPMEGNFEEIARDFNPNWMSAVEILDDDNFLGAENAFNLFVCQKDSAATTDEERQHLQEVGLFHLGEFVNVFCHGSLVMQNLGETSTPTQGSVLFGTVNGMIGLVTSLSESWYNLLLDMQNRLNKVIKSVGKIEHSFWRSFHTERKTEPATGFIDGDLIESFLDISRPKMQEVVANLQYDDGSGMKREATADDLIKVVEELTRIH
T2 sequence (Q13422 whole entry): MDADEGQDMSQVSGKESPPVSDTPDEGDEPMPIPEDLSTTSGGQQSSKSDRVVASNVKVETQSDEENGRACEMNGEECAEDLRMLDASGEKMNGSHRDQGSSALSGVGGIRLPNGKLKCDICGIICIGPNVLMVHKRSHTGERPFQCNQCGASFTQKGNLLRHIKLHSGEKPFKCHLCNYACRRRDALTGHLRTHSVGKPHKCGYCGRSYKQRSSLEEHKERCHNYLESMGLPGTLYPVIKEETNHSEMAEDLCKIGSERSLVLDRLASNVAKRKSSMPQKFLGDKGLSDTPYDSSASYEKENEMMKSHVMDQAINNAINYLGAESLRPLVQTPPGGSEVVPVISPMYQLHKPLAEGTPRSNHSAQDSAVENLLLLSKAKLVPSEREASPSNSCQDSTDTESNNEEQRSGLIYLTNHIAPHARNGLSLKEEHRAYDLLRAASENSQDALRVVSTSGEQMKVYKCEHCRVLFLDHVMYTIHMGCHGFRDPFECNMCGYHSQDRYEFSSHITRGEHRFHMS
T2 sequence (Q96SW2 whole entry): as the sequence (Q96SW2 whole entry) above
T2 sequence (Q16531 whole entry partner): as the sequence (Q16531 whole entry partner) above
T3 sequence (Q9UKS7 whole entry): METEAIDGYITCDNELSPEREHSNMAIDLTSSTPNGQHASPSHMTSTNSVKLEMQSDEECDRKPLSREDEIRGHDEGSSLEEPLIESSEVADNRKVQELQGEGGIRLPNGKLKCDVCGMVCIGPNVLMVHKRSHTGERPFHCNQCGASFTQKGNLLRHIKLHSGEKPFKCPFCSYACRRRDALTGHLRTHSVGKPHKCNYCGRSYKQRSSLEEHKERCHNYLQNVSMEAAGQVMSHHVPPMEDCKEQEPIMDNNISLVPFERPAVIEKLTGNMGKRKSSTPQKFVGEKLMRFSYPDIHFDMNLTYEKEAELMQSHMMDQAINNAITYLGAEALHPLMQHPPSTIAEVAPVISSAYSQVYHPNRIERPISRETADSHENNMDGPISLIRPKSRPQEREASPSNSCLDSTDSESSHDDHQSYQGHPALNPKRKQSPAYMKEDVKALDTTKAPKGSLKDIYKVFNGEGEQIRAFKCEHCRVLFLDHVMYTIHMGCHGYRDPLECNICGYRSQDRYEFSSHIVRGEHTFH
T3 sequence (Q96SW2 whole entry): as the sequence (Q96SW2 whole entry) above
T3 sequence (Q16531 whole entry partner): as the sequence (Q16531 whole entry partner) above
T1 sequence (P30291 whole entry): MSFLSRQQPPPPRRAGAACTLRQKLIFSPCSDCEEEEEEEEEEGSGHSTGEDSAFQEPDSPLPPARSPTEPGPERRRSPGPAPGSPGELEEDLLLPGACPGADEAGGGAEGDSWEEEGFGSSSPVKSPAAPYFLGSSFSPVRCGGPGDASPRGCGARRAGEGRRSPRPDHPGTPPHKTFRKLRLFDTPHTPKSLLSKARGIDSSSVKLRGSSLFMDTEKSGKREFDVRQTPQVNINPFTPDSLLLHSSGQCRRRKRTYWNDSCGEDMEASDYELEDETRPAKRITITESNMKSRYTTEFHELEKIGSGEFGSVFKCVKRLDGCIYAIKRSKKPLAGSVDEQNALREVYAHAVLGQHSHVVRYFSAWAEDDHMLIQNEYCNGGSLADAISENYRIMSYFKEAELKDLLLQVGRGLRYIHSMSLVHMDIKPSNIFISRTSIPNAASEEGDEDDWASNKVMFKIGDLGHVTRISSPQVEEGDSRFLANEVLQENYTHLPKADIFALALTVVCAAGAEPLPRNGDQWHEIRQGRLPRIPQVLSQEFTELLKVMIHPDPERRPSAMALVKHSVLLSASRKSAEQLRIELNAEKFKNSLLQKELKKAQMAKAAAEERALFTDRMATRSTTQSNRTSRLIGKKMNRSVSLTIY
T1 sequence (Q96SW2 whole entry): as the sequence (Q96SW2 whole entry) above
T1 sequence (Q16531 whole entry partner): as the sequence (Q16531 whole entry partner) above
T5 sequence (P48729 whole entry): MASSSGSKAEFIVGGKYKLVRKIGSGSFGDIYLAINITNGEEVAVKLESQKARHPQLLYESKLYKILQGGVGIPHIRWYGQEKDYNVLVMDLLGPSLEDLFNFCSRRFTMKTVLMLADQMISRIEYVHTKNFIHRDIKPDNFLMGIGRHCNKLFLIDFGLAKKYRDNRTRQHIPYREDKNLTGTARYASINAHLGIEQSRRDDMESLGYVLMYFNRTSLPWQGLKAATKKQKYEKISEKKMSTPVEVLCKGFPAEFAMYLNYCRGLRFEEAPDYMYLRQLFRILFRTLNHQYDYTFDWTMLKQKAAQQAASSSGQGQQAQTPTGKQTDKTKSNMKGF
T5 sequence (Q96SW2 whole entry): as the sequence (Q96SW2 whole entry) above
T5 sequence (Q16531 whole entry partner): as the sequence (Q16531 whole entry partner) above

Take `O=C1CCN(N2Cc3cc(CN4CCC(c5ncnc6sccc56)CC4)ccc3C2=O)C(=O)N1` [GT-08082, 1-(1-oxo-5-((4-(thieno[2,3-d]pyrimidin-4-yl)piperidin-1-yl)methyl)isoindolin-2-yl)dihydropyrimidine-2,4(1H,3H)-dione]: the “substrate protein remaining % WEE1” value in experiment [1] is “A (0% ≤ substrate protein remaining % ≤ 80%)”. Further, the “substrate protein remaining % IKZF1” value in [2] is “B (80%< substrate protein remaining %≤ 100%)”. Further, the “substrate protein remaining % IKZF2” value in [3] is “B (80%< substrate protein remaining %≤ 100%)”. The “substrate protein remaining % IKZF3” value in experiment [4] is “B (80%< substrate protein remaining %≤ 100%)”. In addition, the “substrate protein remaining % CK1α” value in experiment [5] was “A (0% ≤ substrate protein remaining % ≤ 80%)”. Also, the “substrate protein remaining % GSPT1” value in experiment [6] is on record as “A (0% ≤ substrate protein remaining % ≤ 80%)”. Also, the inhibition at 0.01 µM in [7] was in the range of 20 to 40%; in experiment [8], 25 to 30%; in experiment [9], 40 to 60%; in experiment [10] it was 25 to 40%. The inhibition at 0.5 µM in [7] lay in the range of 20 to 40%; in [8] it was 20 to 25%; in [9], 40 to 60%; in [10] it was 18 to 25%.
For `Cc1sc2ncnc(C3CCN(Cc4ccc5c(c4)CN(N4CCC(=O)NC4=O)C5=O)CC3)c2c1C` [GT-08084, 1-(5-((4-(5,6-dimethylthieno[2,3-d]pyrimidin-4-yl)piperidin-1-yl)methyl)-1-oxoisoindolin-2-yl)dihydropyrimidine-2,4(1H,3H)-dione], in [1], the “substrate protein remaining % WEE1” value was “B (80%< substrate protein remaining %≤ 100%)”. Further, the “substrate protein remaining % IKZF1” value in [2] is “B (80%< substrate protein remaining %≤ 100%)”. For the same compound, the “substrate protein remaining % IKZF2” value in experiment [3] is given as “B (80%< substrate protein remaining %≤ 100%)”. Also, in experiment [4], the “substrate protein remaining % IKZF3” value is “B (80%< substrate protein remaining %≤ 100%)”. In experiment [5], the “substrate protein remaining % CK1α” value is reported as “A (0% ≤ substrate protein remaining % ≤ 80%)”. Also, in experiment [6], the “substrate protein remaining % GSPT1” value is “A (0% ≤ substrate protein remaining % ≤ 80%)”. In addition, the inhibition at 0.01 µM was in the range of 1 to 5% in [7], 10 to 15% in [8], 18 to 25% in experiment [9] and 5 to 10% in experiment [10]. Besides, the inhibition at 0.5 µM in experiment [7] was in the range of 10 to 15%; in [8], 25 to 30%; in experiment [9], 10 to 18%; in experiment [10] it was 18 to 25%.
Take `O=C1CCN(N2C(=O)c3ccc(CN4CCN(c5ncnc6sc(Br)cc56)CC4)cc3C2=O)C(=O)N1` [GT-08096, 5-((4-(6-bromothieno[2,3-d]pyrimidin-4-yl)piperazin-1-yl)methyl)-2-(2,4-dioxotetrahydropyrimidin-1(2H)-yl)isoindoline-1,3-dione]: the “substrate protein remaining % WEE1” value in experiment [1] is listed as “A (0% ≤ substrate protein remaining % ≤ 80%)”. In addition, the “substrate protein remaining % IKZF1” value in experiment [2] is on record as “B (80%< substrate protein remaining %≤ 100%)”. The “substrate protein remaining % IKZF2” value in experiment [3] is “B (80%< substrate protein remaining %≤ 100%)”. For the same compound, the “substrate protein remaining % IKZF3” value in experiment [4] is “B (80%< substrate protein remaining %≤ 100%)”. Besides, the “substrate protein remaining % CK1α” value in experiment [5] is on record as “A (0% ≤ substrate protein remaining % ≤ 80%)”. Also, in [6], the “substrate protein remaining % GSPT1” value is recorded as “A (0% ≤ substrate protein remaining % ≤ 80%)”. Further, the inhibition at 0.01 µM in experiment [7] was in the range of 40 to 60%; in experiment [8], 30 to 40%; in experiment [9] it was 30 to 40%; in experiment [10] it was 25 to 40%. In addition, the inhibition at 0.5 µM in [7] fell in the range of 20 to 40%; in [8] it was 20 to 25%; in experiment [9], 30 to 40%; in experiment [10], 18 to 25%.
For `Cc1nc(N2CCN(Cc3ccc4c(c3)C(=O)N(N3CCC(=O)NC3=O)C4=O)CC2)c2c(-c3ccccc3)csc2n1` [GT-08099, 2-(2,4-dioxotetrahydropyrimidin-1(2H)-yl)-5-((4-(2-methyl-5-phenylthieno[2,3-d]pyrimidin-4-yl)piperazin-1-yl)methyl)isoindoline-1,3-dione], in experiment [1], the “substrate protein remaining % WEE1” value is “B (80%< substrate protein remaining %≤ 100%)”. Also, the “substrate protein remaining % IKZF1” value in experiment [2] is “B (80%< substrate protein remaining %≤ 100%)”. For the same compound, the “substrate protein remaining % IKZF2” value in experiment [3] is “B (80%< substrate protein remaining %≤ 100%)”. For the same compound, in [4], the “substrate protein remaining % IKZF3” value was “B (80%< substrate protein remaining %≤ 100%)”. For the same compound, the “substrate protein remaining % CK1α” value in [5] was “B (80%< substrate protein remaining %≤ 100%)”. In addition, the “substrate protein remaining % GSPT1” value in experiment [6] is “A (0% ≤ substrate protein remaining % ≤ 80%)”. The inhibition at 0.01 µM in experiment [7] lay within 20 to 40%; in [8], 25 to 30%; in experiment [9], 25 to 30%; in experiment [10] it was 18 to 25%. Also, the inhibition at 0.5 µM in experiment [7] is 20 to 40%; in [8] it was 30 to 40%; in [9], 5 to 10%; in experiment [10], 25 to 40%.
In the case of `Cc1nc(C2CCN(Cc3ccc4c(c3)C(=O)N(N3CCC(=O)NC3=O)C4=O)CC2)c2c3c(sc2n1)CCCC3` [GT-08111, 2-(2,4-dioxotetrahydropyrimidin-1(2H)-yl)-5-((4-(2-methyl-5,6,7,8-tetrahydrobenzo[4,5]thieno[2,3-d]pyrimidin-4-yl)piperidin-1-yl)methyl)isoindoline-1,3-dione], in experiment [1], the “substrate protein remaining % WEE1” value was “B (80%< substrate protein remaining %≤ 100%)”. The “substrate protein remaining % IKZF1” value in experiment [2] is given as “B (80%< substrate protein remaining %≤ 100%)”. Further, in [3], the “substrate protein remaining % IKZF2” value is given as “B (80%< substrate protein remaining %≤ 100%)”. Besides, the “substrate protein remaining % IKZF3” value in experiment [4] is “B (80%< substrate protein remaining %≤ 100%)”. In addition, the “substrate protein remaining % CK1α” value in experiment [5] is reported as “A (0% ≤ substrate protein remaining % ≤ 80%)”. Besides, in [6], the “substrate protein remaining % GSPT1” value is listed as “A (0% ≤ substrate protein remaining % ≤ 80%)”. Further, the values for the inhibition at 0.01 µM in experiment [7], in experiment [8] and in [10] were 20 to 40%, 20 to 25% and 25 to 40%, respectively. The inhibition at 0.5 µM in experiment [7] fell in the range of 20 to 40%; in experiment [8], 25 to 30%; in experiment [10], 25 to 40%.
As to `O=C1CCN(N2Cc3cc(CN4CCC(c5ncnc6sc7c(c56)CCCC7)CC4)ccc3C2=O)C(=O)N1` [GT-08112, 1-(1-oxo-5-((4-(5,6,7,8-tetrahydrobenzo[4,5]thieno[2,3-d]pyrimidin-4-yl)piperidin-1-yl)methyl)isoindolin-2-yl)dihydropyrimidine-2,4(1H,3H)-dione], the “substrate protein remaining % WEE1” value in experiment [1] is reported as “B (80%< substrate protein remaining %≤ 100%)”. For the same compound, the “substrate protein remaining % IKZF1” value in experiment [2] is “B (80%< substrate protein remaining %≤ 100%)”. Further, in experiment [3], the “substrate protein remaining % IKZF2” value was “B (80%< substrate protein remaining %≤ 100%)”. Moreover, in experiment [4], the “substrate protein remaining % IKZF3” value is reported as “B (80%< substrate protein remaining %≤ 100%)”. Also, the “substrate protein remaining % CK1α” value in experiment [5] is on record as “B (80%< substrate protein remaining %≤ 100%)”. In addition, the “substrate protein remaining % GSPT1” value in experiment [6] is reported as “A (0% ≤ substrate protein remaining % ≤ 80%)”. Besides, the inhibition at 0.01 µM in [7] is 15 to 20%; in experiment [8], 15 to 20%; in experiment [10], 15 to 18%. Moreover, the figures for the inhibition at 0.5 µM in experiment [7], in [8] and in experiment [10] were 20 to 40%, 25 to 30% and 25 to 40%, respectively.
For `O=C1CCN(N2Cc3cc(CN4CCC(c5cccc(F)c5F)CC4)ccc3C2=O)C(=O)N1` [GT-08194, 1-(5-((4-(2,3-difluorophenyl)piperidin-1-yl)methyl)-1-oxoisoindolin-2-yl)dihydropyrimidine-2,4(1H,3H)-dione], the “substrate protein remaining % WEE1” value in experiment [1] is “B (80%< substrate protein remaining %≤ 100%)”. Further, in experiment [2], the “substrate protein remaining % IKZF1” value was “A (0% ≤ substrate protein remaining % ≤ 80%)”. Also, in experiment [3], the “substrate protein remaining % IKZF2” value is reported as “B (80%< substrate protein remaining %≤ 100%)”. The “substrate protein remaining % IKZF3” value in experiment [4] is recorded as “B (80%< substrate protein remaining %≤ 100%)”. Also, the “substrate protein remaining % CK1α” value in experiment [5] was “B (80%< substrate protein remaining %≤ 100%)”. Moreover, in experiment [6], the “substrate protein remaining % GSPT1” value is recorded as “A (0% ≤ substrate protein remaining % ≤ 80%)”. Also, the inhibition at 0.01 µM in [8] was 20 to 25%; in experiment [9], 18 to 25%; in [10] it was 18 to 25%. Moreover, the inhibition at 0.5 µM in [8] is 20 to 25%; in [9], 60 to 80%; in [10], 25 to 40%.
